Data as given in patent US20210106703A1, “RADIOIMMUNOCONJUGATES IN COMBINATION WITH OTHER DRUGS AS TREATMENT AGAINST NHL” (Nordic Nanovector ASA, priority 2017, published 2021).
Read-outs that look alike come from different tables or passages of the source.

Tests used:
Format in all cases: cell-based, human
[1] = system: U2932 cells; assay: Real Time Glo viability assay, Betalutin and cell cycle inhibitors (Example 2); details: for viability at 0.1 µM / viability at 1 µM: Homo sapiens, read-out: Growth inhibition (signal treated/control; 1 = no change); for viability at 0.1 µM: U2932, U2932, drug 100 nM; for viability at 1 µM: U2932, U2932, drug 1 μM
Method: (§1) Cells were split twice a week 1:3-1:5 depending on cell density. […] Real Time Glo was purchased from Promega. 384 well plates were purchased from Greiner Bio-One.
(§2) Cells were treated for 18-20 h with Betalutin at a final concentration of 1 μg/ml and 2 μg/ml in 6-well cell culture plates with shaking. After treatment, PBS was added to the cells, and the cells pelleted. Cells were first resuspended in 1 ml PBS, then washed twice in PBS and finally diluted in growth medium at the desired concentration. All cell lines were treated at a cell concentration of 2.5*10^6 cells/ml.
(§3) Regardless of cell number the culturing volume was 25 μl. For Real Time Glo, the Cell Viability Substrate and NanoLuc® Enzyme were diluted 1:500 in growth medium, and 25 μL of diluted reagents added to each well. All reagents were equilibrated to 37° C. Cells were incubated with the reaction mix for 1 h at 37° C. before the first measurement of luminescence. Measurements were repeated as often as required within 72 h after adding the reagents. Digitonin was added to cells at 200 μg/ml to record background luminescence of dead cells. A Tecan SPARK 10M plate reader was used to measure luminescence, with an integration time set to 1 sec.
(§4) Growth inhibition was calculated by dividing the luminescence signal of the treated cells by the luminescence signal of the control cells for each day of measurement after start of treatment [Table 1].
(§5) To evaluate effects of the drugs alone [(−)Betalutin] and their combination with Betalutin [(+)Betalutin], we calculated the Z-score for each sample (ZdrugX=1-(+)BetalutindrugX/(−)BetalutindrugX), where (+)BetalutindrugX and (−) BetalutindrugX are the measured luminescence intensity values for drug X in presence and absence of Betalutin, respectively. The calculation of Z-score values separately for each plate enabled comparison of results across plates, despite variations between the plates in overall signal intensity.

[2] = system: RIVA cells; assay: as above; details: RIVA; for viability at 0.1 µM / viability at 1 µM: Homo sapiens, read-out: Growth inhibition (signal treated/control; 1 = no change)
Method: as §1, §2, §3, §4, §5

[3] = system: OCI-Ly8 cells; assay: Cell cycle analysis (PI, Muse flow cytometer); details: OCI-Ly8, 1 μM inhibitor + ^177Lu-lilotomab, versus ^177Lu-lilotomab alone
Method: Cells were harvested at 0 […], and fixed in 70% ethanol at -20° C. for at least 3 h. After staining with the Muse® Cell Cycle Assay Kit (Merck Millipore, Molsheim, France) using propidium iodide in the dark at room temperature for 30 min, cell cycle distribution was analyzed using a Muse® flow cytometer. The percentage of cells in the G0/G1, S and G2/M was calculated (mean of three experiments in triplicate) and the effect of WEE-1 and MYT-1 kinase inhibitors on the cell cycle was assessed.

SMILES | viability at 0.1 µM ([1]; (+)Betalutin, Dy3) [%] | viability at 0.1 µM ([1]; (+)Betalutin, Dy4) [%] | viability at 0.1 µM ([1]; (+)Betalutin, Dy5) [%] | viability at 0.1 µM ([1]; (+)Betalutin, Dy6) [%] | viability at 0.1 µM ([1]; (−)Betalutin, Dy3) [%] | viability at 0.1 µM ([1]; (−)Betalutin, Dy4) [%] | viability at 0.1 µM ([1]; (−)Betalutin, Dy5) [%] | viability at 0.1 µM ([1]; (−)Betalutin, Dy6) [%] | viability at 1 µM ([1]; (+)Betalutin, Dy3) [%] | viability at 1 µM ([1]; (+)Betalutin, Dy4) [%] | viability at 1 µM ([1]; (+)Betalutin, Dy5) [%] | viability at 1 µM ([1]; (+)Betalutin, Dy6) [%] | viability at 1 µM ([1]; (−)Betalutin, Dy3) [%] | viability at 1 µM ([1]; (−)Betalutin, Dy4) [%] | viability at 1 µM ([1]; (−)Betalutin, Dy5) [%] | viability at 1 µM ([1]; (−)Betalutin, Dy6) [%] | viability at 0.1 µM ([2]; drug 100 nM, +Betalutin, Dy3) [%] | viability at 0.1 µM ([2]; drug 100 nM, +Betalutin, Dy4) [%] | viability at 0.1 µM ([2]; drug 100 nM, +Betalutin, Dy5) [%] | viability at 0.1 µM ([2]; drug 100 nM, +Betalutin, Dy6) [%] | further results
Nc1nc(Nc2ccc(S(N)(=O)=O)cc2)nn1C(=O)c1c(F)cccc1F [JNJ-7706621] | 83 | 82 | 73 | 72 | 90 | 91 | 107 | 116 | 39 | 26 | 16 | 11 | 53 | 36 | 25 | 20 | 13 | 8 | 4 | 4 | Synergy for the combination with Betalutin ([1]; U2932, drug 100 nM): Bliss; viability at 0.1 µM ([2]; drug 100 nM, −Betalutin, Dy3): 89%; viability at 0.1 µM ([2]; drug 100 nM, −Betalutin, Dy4): 82%; viability at 0.1 µM ([2]; drug 100 nM, −Betalutin, Dy5): 99%; viability at 0.1 µM ([2]; drug 100 nM, −Betalutin, Dy6): 89%; viability at 1 µM ([2]; drug 1 μM, +Betalutin, Dy3): 29%; viability at 1 µM ([2]; drug 1 μM, +Betalutin, Dy4): 13%; viability at 1 µM ([2]; drug 1 μM, +Betalutin, Dy5): 4%; viability at 1 µM ([2]; drug 1 μM, +Betalutin, Dy6): 3%; viability at 1 µM ([2]; drug 1 μM, −Betalutin, Dy3): 50%; viability at 1 µM ([2]; drug 1 μM, −Betalutin, Dy4): 31%; viability at 1 µM ([2]; drug 1 μM, −Betalutin, Dy5): 17%; viability at 1 µM ([2]; drug 1 μM, −Betalutin, Dy6): 14%; Synergy for the combination with Betalutin ([2]; drug 100 nM): Bliss + Z-score; Synergy for the combination with Betalutin ([2]; drug 1 μM): Z-score
C=CCn1c(=O)c2cnc(Nc3ccc(N4CCN(C)CC4)cc3)nc2n1-c1cccc(C(C)(C)O)n1 [MK-1775] | 120 | 95 | 85 | 71 | 100 | 90 | 92 | 103 | 104 | 94 | 89 | 80 | 86 | 89 | 96 | 115 | 49 | 38 | 24 | 23 | Proportion of cells in G2/M, inhibitor combined with ^177Lu-lilotomab [3]: reduction of the fraction of G2/M cells; viability at 0.1 µM ([2]; drug 100 nM, −Betalutin, Dy3): 100%; viability at 0.1 µM ([2]; drug 100 nM, −Betalutin, Dy4): 89%; viability at 0.1 µM ([2]; drug 100 nM, −Betalutin, Dy5): 94%; viability at 0.1 µM ([2]; drug 100 nM, −Betalutin, Dy6): 94%; viability at 1 µM ([2]; drug 1 μM, +Betalutin, Dy3): 2%; viability at 1 µM ([2]; drug 1 μM, +Betalutin, Dy4): 1%; viability at 1 µM ([2]; drug 1 μM, +Betalutin, Dy5): 1%; viability at 1 µM ([2]; drug 1 μM, +Betalutin, Dy6): 1%; viability at 1 µM ([2]; drug 1 μM, −Betalutin, Dy3): 8%; viability at 1 µM ([2]; drug 1 μM, −Betalutin, Dy4): 4%; viability at 1 µM ([2]; drug 1 μM, −Betalutin, Dy5): 2%; viability at 1 µM ([2]; drug 1 μM, −Betalutin, Dy6): 1%
